Laboratory results: US10660877B2 (BRISTOL-MYERS SQUIBB COMPANY, priority 2016, dated 2020)
Like-named read-outs stand apart in the source and are kept apart here.

Tests used:
human TLR7 = human TLR7 (Homo sapiens (Human), UniProt Q9NYK1); test: TLR7 inhibition reporter assay (HEK-Blue cells, SEAP reporter, gardiquimod stimulation); assay type: cell-based
human TLR8 = human TLR8 (Homo sapiens (Human), UniProt Q9NR97); test: TLR8 inhibition reporter assay (HEK-Blue cells, SEAP reporter, R848 stimulation);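 note: compounds tested from 0.05 nM to 50 µM, 22 h at 37 °C, SEAP measured with HEK-Blue Detection, inhibition relative to agonist plus DMSO versus a known inhibitor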
human TLR9 = human TLR9 (Homo sapiens (Human), UniProt Q9NR96); test: TLR9 inhibition reporter assay (HEK-Blue cells, SEAP reporter, ODN2006 stimulation);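 note: compounds tested over 0.05 nM to 50 µM, 22 h incubation, inhibition taken as SEAP signal drop from agonist plus DMSO wells toward a known inhibitor control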
[1] = HEK-Blue cells overexpressing human TLR7, gardiquimod 7.5 μM
[2] = read-out: TLR8 IC50, HEK-Blue cells overexpressing human TLR8, R848 15.9 μM
[3] = read-out: TLR9 IC50, HEK-Blue cells overexpressing human TLR9, ODN2006 5 nM
[4] = HEK-Blue cells, gardiquimod 7.5 μM
[5] = read-out: TLR8 IC50, HEK-Blue cells, R848 15.9 μM
[6] = read-out: TLR9 IC50, HEK-Blue cells, ODN2006 5 nM

human TLR9, sequence (Q9NR96 26-1032): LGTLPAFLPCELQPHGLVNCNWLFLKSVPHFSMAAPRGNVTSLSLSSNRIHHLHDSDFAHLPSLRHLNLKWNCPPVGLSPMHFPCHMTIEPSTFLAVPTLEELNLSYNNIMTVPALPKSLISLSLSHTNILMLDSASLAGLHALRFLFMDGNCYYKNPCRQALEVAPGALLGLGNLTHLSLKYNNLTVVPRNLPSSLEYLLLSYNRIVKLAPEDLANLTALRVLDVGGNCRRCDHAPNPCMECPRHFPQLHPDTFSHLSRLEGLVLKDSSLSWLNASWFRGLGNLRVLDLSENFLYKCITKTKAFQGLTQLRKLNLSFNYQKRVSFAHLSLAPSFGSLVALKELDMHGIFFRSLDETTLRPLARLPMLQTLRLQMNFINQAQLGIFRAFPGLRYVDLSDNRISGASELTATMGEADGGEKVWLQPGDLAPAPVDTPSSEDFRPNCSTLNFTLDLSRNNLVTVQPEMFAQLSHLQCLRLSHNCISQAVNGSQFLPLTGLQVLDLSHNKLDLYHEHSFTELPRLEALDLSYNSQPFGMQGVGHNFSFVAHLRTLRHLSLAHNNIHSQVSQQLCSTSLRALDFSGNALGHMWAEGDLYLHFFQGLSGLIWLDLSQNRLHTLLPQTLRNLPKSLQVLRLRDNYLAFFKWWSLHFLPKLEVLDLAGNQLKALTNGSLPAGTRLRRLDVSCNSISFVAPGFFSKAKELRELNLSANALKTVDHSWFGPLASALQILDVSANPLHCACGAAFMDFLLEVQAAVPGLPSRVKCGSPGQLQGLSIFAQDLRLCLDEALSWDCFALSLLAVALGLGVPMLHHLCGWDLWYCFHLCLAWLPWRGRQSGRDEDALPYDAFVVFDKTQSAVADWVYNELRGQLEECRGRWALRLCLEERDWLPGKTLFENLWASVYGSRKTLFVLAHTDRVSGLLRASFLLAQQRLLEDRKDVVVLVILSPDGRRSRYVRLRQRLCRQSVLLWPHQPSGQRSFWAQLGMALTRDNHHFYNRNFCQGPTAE
human TLR8, sequence (Q9NR97 27-1041): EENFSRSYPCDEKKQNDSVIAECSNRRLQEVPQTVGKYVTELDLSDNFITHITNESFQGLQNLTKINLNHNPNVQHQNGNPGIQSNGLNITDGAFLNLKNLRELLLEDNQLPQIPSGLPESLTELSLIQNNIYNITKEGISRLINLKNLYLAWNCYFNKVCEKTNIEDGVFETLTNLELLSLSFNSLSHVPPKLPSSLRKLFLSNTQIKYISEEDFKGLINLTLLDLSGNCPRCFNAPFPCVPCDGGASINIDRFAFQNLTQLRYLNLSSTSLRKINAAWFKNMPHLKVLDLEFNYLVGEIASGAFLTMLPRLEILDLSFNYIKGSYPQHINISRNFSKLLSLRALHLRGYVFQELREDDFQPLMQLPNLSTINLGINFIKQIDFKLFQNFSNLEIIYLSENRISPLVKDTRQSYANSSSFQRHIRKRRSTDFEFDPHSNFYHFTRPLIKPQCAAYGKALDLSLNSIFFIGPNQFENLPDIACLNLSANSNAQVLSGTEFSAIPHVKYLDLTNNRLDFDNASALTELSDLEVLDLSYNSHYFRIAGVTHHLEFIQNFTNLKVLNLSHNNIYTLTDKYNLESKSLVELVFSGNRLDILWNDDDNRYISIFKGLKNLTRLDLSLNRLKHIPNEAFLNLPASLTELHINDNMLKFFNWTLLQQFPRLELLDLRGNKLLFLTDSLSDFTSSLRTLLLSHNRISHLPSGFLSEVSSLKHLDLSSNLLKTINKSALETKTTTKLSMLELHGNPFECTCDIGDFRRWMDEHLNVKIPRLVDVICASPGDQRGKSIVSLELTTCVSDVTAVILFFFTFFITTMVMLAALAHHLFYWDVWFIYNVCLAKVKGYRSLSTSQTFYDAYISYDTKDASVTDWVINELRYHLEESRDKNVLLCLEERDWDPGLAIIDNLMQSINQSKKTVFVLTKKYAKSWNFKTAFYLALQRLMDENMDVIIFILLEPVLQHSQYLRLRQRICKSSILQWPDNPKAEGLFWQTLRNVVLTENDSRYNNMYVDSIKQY
human TLR7, sequence (Q9NYK1 27-1049): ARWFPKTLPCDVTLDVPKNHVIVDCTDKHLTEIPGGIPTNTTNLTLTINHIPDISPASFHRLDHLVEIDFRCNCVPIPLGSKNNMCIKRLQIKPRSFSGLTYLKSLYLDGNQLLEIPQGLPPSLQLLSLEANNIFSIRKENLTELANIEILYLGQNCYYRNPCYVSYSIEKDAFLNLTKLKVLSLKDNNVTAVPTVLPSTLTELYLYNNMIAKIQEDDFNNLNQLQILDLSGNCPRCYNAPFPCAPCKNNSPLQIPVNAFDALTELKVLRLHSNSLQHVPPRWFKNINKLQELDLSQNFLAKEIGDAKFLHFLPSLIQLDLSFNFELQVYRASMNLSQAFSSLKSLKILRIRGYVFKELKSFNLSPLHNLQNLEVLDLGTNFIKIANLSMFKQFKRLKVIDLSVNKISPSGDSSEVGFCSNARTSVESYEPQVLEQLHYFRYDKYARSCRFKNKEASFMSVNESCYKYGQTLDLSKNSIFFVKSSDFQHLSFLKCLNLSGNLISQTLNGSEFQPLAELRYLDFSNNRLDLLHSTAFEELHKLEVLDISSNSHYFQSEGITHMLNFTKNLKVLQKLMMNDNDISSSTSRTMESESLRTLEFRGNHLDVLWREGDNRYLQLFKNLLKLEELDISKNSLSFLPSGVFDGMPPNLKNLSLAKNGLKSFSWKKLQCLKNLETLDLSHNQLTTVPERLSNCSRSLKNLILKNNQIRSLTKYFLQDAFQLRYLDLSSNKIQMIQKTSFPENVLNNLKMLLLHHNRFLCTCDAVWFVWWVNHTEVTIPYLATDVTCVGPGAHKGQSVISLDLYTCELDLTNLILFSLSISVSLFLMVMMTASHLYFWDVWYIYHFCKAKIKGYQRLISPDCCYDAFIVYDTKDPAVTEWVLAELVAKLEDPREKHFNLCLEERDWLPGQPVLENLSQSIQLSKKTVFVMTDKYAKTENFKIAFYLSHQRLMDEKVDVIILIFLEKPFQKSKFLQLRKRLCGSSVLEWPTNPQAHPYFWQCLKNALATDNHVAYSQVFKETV

SMILES	IC50 (human TLR7; [1]) [nM]	IC50 (human TLR8; [2]) [nM]	IC50 (human TLR9; [3]) [nM]	IC50 (human TLR7; [4]) [nM]	IC50 (human TLR8; [5]) [nM]	IC50 (human TLR9; [6]) [nM]	IC50 (human TLR8; TLR8 IC50, HEK-Blue cells overexpressing human TLR8, R848 15.9 μM) [nM]	IC50 (human TLR9; TLR9 IC50, HEK-Blue cells overexpressing human TLR9, ODN2006 5 nM) [nM]
Cc1cc(-c2[nH]c3ccc(C4CCN(CCC(F)(F)F)CC4)cc3c2C(C)C)ccn1 [Example 676, 3-isopropyl-2-(2-methylpyridin-4-yl)-5-(1-(3,3,3-trifluoropropyl)piperidin-4-yl)-1H-indole]	19	12.3	1930					
CCC(CC)NC(=O)CN1CCC(c2ccc3[nH]c(-c4cc(C)nc(C)c4)c(C(C)C)c3c2)CC1 [Example 220, 2-(4-(2-(2,6-dimethylpyridin-4-yl)-3-isopropyl-1H-indol-5-yl)piperidin-1-yl)-N-(pentan-3-yl)acetamide]	13.9	36	1300					
CCc1cc(-c2[nH]c3ccc(C4CCNCC4)cc3c2C(C)C)cc(OC)n1 [Example 487, 2-(2-ethyl-6-methoxypyridin-4-yl)-3-isopropyl-5-(piperidin-4-yl)-1H-indole]	33.4	79.1	2140					
Cc1cc(-c2[nH]c3ccc(C4CCN(C(=O)Cc5cc(C)nn5C)CC4)cc3c2C(C)C)cc(C)n1 [Example 136, 2-(1,3-dimethyl-1H-pyrazol-5-yl)-1-(4-(2-(2,6-dimethylpyridin-4-yl)-3-isopropyl-1H-indol-5-yl)piperidin-1-yl)ethan-1-one]	23.3	134	30000					
COc1cc(-c2[nH]c3ccc(C4CCNCC4)cc3c2C(C)C)cc(C2CC2)n1 [Example 486, 2-(2-cyclopropyl-6-methoxypyridin-4-yl)-3-isopropyl-5-(piperidin-4-yl)-1H-indole]	49	213	2760					
CCc1c(-c2cc(F)nc(F)c2)[nH]c2ccc(C3CCN(C4CCN(CC(C)C)CC4)CC3)cc12 [Example 761, 2-(2,6-difluoropyridin-4-yl)-3-ethyl-5-(1′-isobutyl-[1,4′-bipiperidin]-4-yl)-1H-indole]	4260	375	800					
Cc1cc(-c2[nH]c3ccc(C4CCN(C(=O)C5CNC(=O)C5)CC4)cc3c2C(C)C)ccn1 (stereo not drawn) [Example 612, 4-(4-(3-isopropyl-2-(2-methylpyridin-4-yl)-1H-indol-5-yl)piperidine-1-carbonyl)pyrrolidin-2-one]	73	162	16700					
Cc1cc(-c2[nH]c3ccc(C4CCN(CC5CC5)CC4)cc3c2C(C)C)ccn1 [Example 866, 5-(1-(cyclopropylmethyl)piperidin-4-yl)-3-isopropyl-2-(2-methylpyridin-4-yl)-1H-indole]				38.1	12.2	1690		
Cc1cc(-c2[nH]c3ccc(C4CCN(CC(C)C)CC4)cc3c2C(C)C)c(C)cn1 [Example 666, 2-(2,5-dimethylpyridin-4-yl)-5-(1-isobutylpiperidin-4-yl)-3-isopropyl-1H-indole]	5.8	2.6	948					
CNCCN1CCC(c2ccc3[nH]c(-c4cc(OC)ncc4F)c(C)c3c2)CC1 [Example 756, 2-(4-(2-(5-fluoro-2-methoxypyridin-4-yl)-3-methyl-1H-indol-5-yl)piperidin-1-yl)-N-methylethan-1-amine]	3120	185	3300					
Cc1cc(-c2[nH]c3ccc(C4CCNCC4)c(F)c3c2C(C)C)ccn1 [Example 76, 4-fluoro-3-isopropyl-2-(2-methylpyridin-4-yl)-5-(piperidin-4-yl)-1H-indole]	1.4	2.7	440					
Cc1cc(-c2[nH]c3ccc(C4CCN(C)CC4)cc3c2C(C)C)c(F)cn1 [Example 635, 2-(5-fluoro-2-methylpyridin-4-yl)-3-isopropyl-5-(1-methylpiperidin-4-yl)-1H-indole]	5.6	5.1	3690					
Cc1cc(-c2[nH]c3ccc(C4CCN(C5CCCOC5)CC4)cc3c2C(C)C)cc(C)n1 (stereo not drawn) [Example 457, 2-(2,6-dimethylpyridin-4-yl)-3-isopropyl-5-(1-(tetrahydro-2H-pyran-3-yl)piperidin-4-yl)-1H-indole]	2.7	8.7	274					
Cc1cc(-c2[nH]c3ccc(C4CCN(C(=O)C(C)(C)C)CC4)cc3c2C(C)C)ccn1 [Example 601, 1-(4-(3-isopropyl-2-(2-methylpyridin-4-yl)-1H-indol-5-yl)piperidin-1-yl)-2,2-dimethylpropan-1-one]	99.2	385	34100					
Cc1cc(-c2[nH]c3ccc(C4CCN(Cc5cnn(C)c5)CC4)cc3c2C(C)C)cc(C)n1 [Example 440, 2-(2,6-dimethylpyridin-4-yl)-3-isopropyl-5-(1-((1-methyl-1H-pyrazol-4-yl)methyl)piperidin-4-yl)-1H-indole]	5.3	2.3	210					
Cc1cc(-c2[nH]c3ccc(C4CCN(CC5(C)COC5)CC4)cc3c2C(C)C)cc(C)n1 [Example 475, 2-(2,6-dimethylpyridin-4-yl)-3-isopropyl-5-(1-((3-methyloxetan-3-yl)methyl)piperidin-4-yl)-1H-indole]	4.1	2.2	335					
Cc1cc(-c2[nH]c3ccc(C4CCN(C(=O)C5(C)COC5)CC4)cc3c2C(C)C)ccn1 [Example 596, (4-(3-isopropyl-2-(2-methylpyridin-4-yl)-1H-indol-5-yl)piperidin-1-yl)(3-methyloxetan-3-yl)methanone]	33.3	102	44500					
Cc1cc(-c2[nH]c3ccc(C4CCN(CC(=O)N5CCC(F)CC5)CC4)cc3c2C(C)C)cc(C)n1 [Example 283, 2-(4-(2-(2,6-dimethylpyridin-4-yl)-3-isopropyl-1H-indol-5-yl)piperidin-1-yl)-1-(4-fluoropiperidin-1-yl)ethan-1-one]	2.6	8.9	248					
Cc1cc(-c2[nH]c3ccc(C4CCN(CC(=O)N(C)C)CC4)cc3c2C(C)C)c(F)cn1 [Example 643, 2-(4-(2-(5-fluoro-2-methylpyridin-4-yl)-3-isopropyl-1H-indol-5-yl)piperidin-1-yl)-N,N-dimethylacetamide]	4.5	4.7	4400					
CCC(CC)C(=O)N1CCC(c2ccc3[nH]c(-c4cc(C)nc(C)c4)c(C(C)C)c3c2)CC1 [Example 104, 1-(4-(2-(2,6-dimethylpyridin-4-yl)-3-isopropyl-1H-indol-5-yl)piperidin-1-yl)-2-ethylbutan-1-one]	14.9	249	12000					
Cc1cc(-c2[nH]c3ccc(C4CCN(C(=O)Cc5csc(C)n5)CC4)cc3c2C(C)C)cc(C)n1	16.4	124	28800					
CCc1c(-c2ccnc(C)c2)[nH]c2ccc(C3CCN(CCCN(C)C)CC3)cc12 [Example 673, 3-(4-(3-ethyl-2-(2-methylpyridin-4-yl)-1H-indol-5-yl)piperidin-1-yl)-N,N-dimethylpropan-1-amine]	70.5	23.1	287					
COc1cc(OC)nc(CN2CCC(c3ccc4[nH]c(-c5cc(C)nc(C)c5)c(C(C)C)c4c3)CC2)n1 [Example 447, 5-(1-((4,6-dimethoxypyrimidin-2-yl)methyl)piperidin-4-yl)-2-(2,6-dimethylpyridin-4-yl)-3-isopropyl-1H-indole]	5.4	7	446					
Cc1cc(-c2[nH]c3ccc(C4CCN(CC5COC5)CC4)cc3c2C(C)C)c(F)cn1 [Example 650, 2-(5-fluoro-2-methylpyridin-4-yl)-3-isopropyl-5-(1-(oxetan-3-ylmethyl)piperidin-4-yl)-1H-indole]	4.7	1.8	3400					
Cc1cc(-c2[nH]c3ccc(C4CCNCC4O)cc3c2C(C)C)cc(C)n1 (single isomer, unassigned) [Example 488A, 4-(2-(2,6-dimethylpyridin-4-yl)-3-isopropyl-1H-indol-5-yl)piperidin-3-ol]	2.7						21	240
Cc1cc(-c2[nH]c3ccc(C4CCN(C(=O)CNC5CCCOC5)CC4)cc3c2C(C)C)cc(C)n1 (stereo not drawn) [Example 385, 1-(4-(2-(2,6-dimethylpyridin-4-yl)-3-isopropyl-1H-indol-5-yl)piperidin-1-yl)-2-((tetrahydro-2H-pyran-3-yl)amino)ethan-1-one]	3.2	22	539					
CCc1c(-c2ccnc(C)c2)[nH]c2ccc(C3CCN(CCC(F)(F)F)CC3)cc12 [Example 863, 3-ethyl-2-(2-methylpyridin-4-yl)-5-(1-(3,3,3-trifluoropropyl)piperidin-4-yl)-1H-indole]				469	53	2450		
CCc1c(-c2ccnc(C)c2)[nH]c2ccc(C3CCN(C)CC3)cc12 [Example 670, 3-ethyl-5-(1-methylpiperidin-4-yl)-2-(2-methylpyridin-4-yl)-1H-indole]	68.1	64.8	663					
CCc1c(-c2ccnc(OC)c2)[nH]c2ccc(C3CCN([C@H]4CCCNCC4)CC3)cc12 [Example 794, (S)-5-(1-(azepan-4-yl)piperidin-4-yl)-3-ethyl-2-(2-methoxypyridin-4-yl)-1H-indole]	674	40.9	1100					
